From patent publication US10308916B2, “Omega-transaminase mutants with activity improvements toward ketones and methods for producing optically pure amines” (Industry-Academic Cooperation Foundation, Yonsei University, priority 2015, dated 2019)
Read-outs that look alike come from different tables or passages of the source.

Assays:
OATA WT [1] = assay type: biochemical, Ochrobactrum anthropi; settings: pH 7
OATA WT [2] = assay type: biochemical
OATA WT [3] = assay type: biochemical; remark: listed apart in the source
OATA WT [4] = assay type: biochemical, Ochrobactrum anthropi
OATA = OATA (Brucella anthropi, UniProt A6WVC6); assay type: biochemical
OATA WT [5] = assay type: biochemical, Ochrobactrum anthropi; remark: listed apart in the source
OATA WT [6] = assay type: biochemical; remark: listed apart in the source
ARTAmut = settings: cited from earlier work
[7] = test system: (S)-selective omega-transaminase from Ochrobactrum anthropi; settings: cited from earlier work
OATA W58A [8] = assay type: biochemical; settings: pH 7
OATA W58V = assay type: biochemical; settings: pH 7
OATA W58I = assay type: biochemical; settings: pH 7
OATA W58L = assay type: biochemical; settings: pH 7
OATA W58M = assay type: biochemical; settings: pH 7
OATA L57A = assay type: biochemical
OATA W58A [9] = assay type: biochemical
OATA L57A/W58A = assay type: biochemical
OATA L57A/W58A/V154A = assay type: biochemical
OATA WT [10] = assay type: biochemical, Ochrobactrum anthropi; remark: listed apart in the source
CC(=O)C(=O)O = assay: purified protein, by the assay type

Q: With 1-acetonaphthone [Ketone 1i] as the compound, how does the “Relative activity to acetophenone, OATA WT” value (OATA WT [1]) read?
A: The value was 43%.

Q: And the “Conversion (%) OATA” value (OATA WT [2])?
A: The value was 13%.

Q: Which “Relative reactivity, OATA” value (OATA WT [3]) does the source give for `CC(C)C(N)c1ccccc1` (racemic) [2-Methyl-1-phenylpropan-1-amine] here?
A: Its value is 0.1%.

Q: For `CC(N)CO` (racemic) [DL-Alaninol], which “Relative reactivity, OATA” value (OATA WT [3]) is on record?
A: Its value is 16%.

Q: For `CC(C)C(C)N` (stereo not shown) [1,2-Dimethylpropylamine], which “Relative reactivity, OATA” value (OATA WT [3]) is on record?
A: Its value is 18%.

Q: Which “Relative reactivity, OATA” value (OATA WT [3]) does the source give for `CC(C)CC(C)N` (stereo not shown) [1,3-Dimethylbutylamine] here?
A: Its value is 3%.

Q: With `COCC(C)N` (stereo not shown) [1-Methoxy-2-propylamine] as the compound, how does the “Relative reactivity, OATA” value (OATA WT [3]) read?
A: The value was 29%.

Q: With `CC(N)CCc1ccccc1` (stereo not shown) [1-Methyl-3-phenylpropylamine] as the compound, how does the “Relative reactivity, OATA” value (OATA WT [3]) read?
A: The value was 73%.

Q: Which “Relative reactivity, OATA” value (OATA WT [3]) does the source give for `CC(C)(C)C(N)c1ccccc1` (stereo not shown) [2,2-Dimethyl-1-phenylpropan-1-amine] here?
A: Its value is 0.1%.

Q: For `CCCC(C)N` (stereo not shown) [2-Aminopentane], which “Relative reactivity, OATA” value (OATA WT [3]) is on record?
A: Its value is 13%.

Q: Which “Relative activity, OATA WT” value (OATA WT [4]) does the source give for `CCC(=O)C(=O)O` [2-oxobutanoic acid] here?
A: The value was 17.2%.

Q: With `CCCCC(=O)C(=O)O` [2-oxohexanoic acid] as the compound, how does the “Relative activity, OATA WT” value (OATA WT [4]) read?
A: Its value is 1%.

Q: Which “Relative activity, OATA WT” value (OATA WT [4]) does the source give for `CCCCCCC(=O)C(=O)O` [2-oxooctanoic acid] here?
A: Its value is 1%.

Q: For `CCCC(=O)C(=O)O` [2-oxopentanoic acid], which “Relative activity, OATA WT” value (OATA WT [4]) is on record?
A: The value was 0.6%.

Q: For `CC(C)C(=O)C(=O)O` [3-methyl-2-oxobutyric acid], which “Relative activity, OATA WT” value (OATA WT [4]) is on record?
A: The value was “did not react”.

Q: Which “Relative reactivity, OATA” value (OATA WT [3]) does the source give for `CC(N)c1ccc(F)cc1` (stereo not drawn) [4-Fluoro-α-methylbenzylamine] here?
A: Its value is 31%.

Q: With `C[C@H](N)c1cccc2ccccc12` [(S)-1-(1-naphthyl)ethylamine] as the compound, how does the “Relative reactivity, OATA” value (OATA WT [3]) read?
A: Its value is 0.5%.

Q: With `C[C@H](N)C1CC1` [(S)-1-Cyclopropylethylamine] as the compound, how does the “Relative reactivity, OATA” value (OATA WT [3]) read?
A: Its value is 29%.

Q: Which “Relative reactivity, OATA” value (OATA WT [3]) does the source give for `N[C@H]1CCc2ccccc21` [(S)-1-aminoindan] here?
A: The value was 9%.

Q: With `CCCC[C@H](C)N` [(S)-2-aminohexane] as the compound, how does the “Relative reactivity, OATA” value (OATA WT [3]) read?
A: The value was 31%.

Q: For `CCCCCC[C@H](C)N` [(S)-2-aminooctane], which “Relative reactivity, OATA” value (OATA WT [3]) is on record?
A: Its value is 146%.

Q: For `COc1ccc([C@H](C)N)cc1` [(S)-4-methoxy-α-methylbenzylamine], which “Relative reactivity, OATA” value (OATA WT [3]) is on record?
A: The value was 116%.

Q: With `Cc1ccc([C@H](C)N)cc1` [(S)-α,4-dimethylbenzylamine] as the compound, how does the “Relative reactivity, OATA” value (OATA WT [3]) read?
A: The value was 86%.

Q: With `CC[C@H](N)c1ccccc1` [(S)-α-ethylbenzylamine] as the compound, how does the “Relative reactivity, OATA” value (OATA WT [3]) read?
A: The value was 2%.

Q: For `C[C@H](N)c1ccccc1` [(S)-α-methylbenzylamine], which “kcat, OATA” value (OATA) is on record?
A: Its value is 24000, 20000 ×10^−3 s^−1.

Q: And the “Relative reactivity, OATA” value (OATA WT [3])?
A: The value was 100%.

Q: What about the “Relative activity, OATA WT” value (OATA WT [5]) of the same compound?
A: Its value is 100%.

Q: For `CCC[C@H](N)c1ccccc1` [(S)-α-propylbenzylamine], which “Relative reactivity, OATA” value (OATA WT [3]) is on record?
A: The value was 0.2%.

Q: For `NCc1ccccc1` [Benzylamine], which “Relative reactivity, OATA” value (OATA WT [3]) is on record?
A: The value was 274%.

Q: With `CC(C)N` [Isopropylamine] as the compound, how does the “kcat, OATA” value (OATA) read?
A: Its value is 9700, 9300 ×10^−3 s^−1.

Q: What about the “Relative reactivity, OATA” value (OATA WT [3]) of the same compound?
A: The value was 20%.

Q: For `CC(=O)c1ccccc1` [Ketone 1a, acetophenone], which “Relative activity to acetophenone, OATA WT” value (OATA WT [1]) is on record?
A: The value was 100%.

Q: And the “Relative activity, OATA WT” value (OATA WT [6])?
A: The value was 100%.

Q: And the “kcat, OATA” value (OATA)?
A: Its value is 9.7, 540 ×10^−3 s^−1.

Q: What about the Conversion (ARTAmut) of the same compound?
A: Its Conversion is 19%.

Q: What about the “activity relative to pyruvate” value [7] of the same compound?
A: Its value is 0.03%.

Q: For `CCC(=O)c1ccccc1` [Ketone 1b, propiophenone], which “Relative activity to acetophenone, OATA WT” value (OATA WT [1]) is on record?
A: Its value is 1%.

Q: And the “Relative activity to acetophenone, OATA W58A” value (OATA W58A [8])?
A: The value was 14%.

Q: And the “Relative activity to acetophenone, OATA W58V” value (OATA W58V)?
A: Its value is 16%.

Q: And the “Relative activity to acetophenone, OATA W58I” value (OATA W58I)?
A: Its value is 14%.

Q: And the “Relative activity to acetophenone, OATA W58L” value (OATA W58L)?
A: The value was 2%.

Q: What about the “Relative activity to acetophenone, OATA W58M” value (OATA W58M) of the same compound?
A: The value was 17%.

Q: What about the “Relative activity, OATA WT” value (OATA WT [6]) of the same compound?
A: The value was 17%.

Q: What about the “Relative activity, OATA L57A” value (OATA L57A) of the same compound?
A: Its value is 49%.

Q: And the “Relative activity, OATA W58A” value (OATA W58A [9])?
A: Its value is 259%.

Q: And the “Relative activity, OATA L57A/W58A” value (OATA L57A/W58A)?
A: Its value is 387%.

Q: And the “Relative activity, OATA L57A/W58A/V154A” value (OATA L57A/W58A/V154A)?
A: The value was 821%.

Q: Which “Relative activity to acetophenone, OATA WT” value (OATA WT [1]) does the source give for `CCCC(=O)c1ccccc1` [Ketone 1c, butyrophenone] here?
A: Its value is 0%.

Q: What about the “Relative activity, OATA WT” value (OATA WT [6]) of the same compound?
A: The value was 2%.

Q: What does the source list for `CC(=O)c1ccc(C)cc1` [Ketone 1d, 4-methylacetophenone]?
A: Relative activity to acetophenone, OATA WT (OATA WT [1]): 51%; Conversion (%) OATA (OATA WT [2]): 7%

Q: For `COc1ccc(C(C)=O)cc1` [Ketone 1e, 4-methoxyacetophenone], which “Relative activity to acetophenone, OATA WT” value (OATA WT [1]) is on record?
A: The value was 29%.

Q: With `CC(=O)CCc1ccccc1` [Ketone 1f, benzylacetone] as the compound, how does the “Relative activity to acetophenone, OATA WT” value (OATA WT [1]) read?
A: The value was 536%.

Q: And the “Conversion (%) OATA” value (OATA WT [2])?
A: The value was 26%.

Q: For `O=C1CCc2ccccc21` [Ketone 1g], which “Reaction rate OATA” value (OATA WT [10]) is on record?
A: The value was “did not react”.

Q: For `O=C1CCCc2ccccc21` [Ketone 1h], which “Reaction rate OATA” value (OATA WT [10]) is on record?
A: Its value is “did not react”.

Q: For `CCCC(C)=O` [Ketone 1j, 2-pentanone], which “Relative activity to acetophenone, OATA WT” value (OATA WT [1]) is on record?
A: The value was 83%.

Q: Which “Relative activity to acetophenone, OATA WT” value (OATA WT [1]) does the source give for `CCCCC(C)=O` [Ketone 1k, 2-hexanone] here?
A: The value was 151%.

Q: And the “Conversion (%) OATA” value (OATA WT [2])?
A: The value was 14%.

Q: Which results are given for `CCCCCCC(C)=O` [Ketone 1l, 2-octanone]?
A: Relative activity to acetophenone, OATA WT (OATA WT [1]): 208%; Conversion (%) OATA (OATA WT [2]): 30%

Q: With `CC(=O)C(C)C` [Ketone 1m, 3-methyl 2-butanone] as the compound, how does the “Relative activity to acetophenone, OATA WT” value (OATA WT [1]) read?
A: Its value is 161%.

Q: Which “Relative activity to acetophenone, OATA WT” value (OATA WT [1]) does the source give for `CC(=O)CC(C)C` [Ketone 1n, 4-methyl-2-pentanone] here?
A: The value was 21%.

Q: For `CCC(C)=O` [Ketone 2-butanone, 2-butanone], which “Relative activity to acetophenone, OATA WT” value (OATA WT [1]) is on record?
A: Its value is 317%.

Q: For `Cc1cccc(C)c1OCC(C)N` (stereo not shown) [Mexiletine, reference compound], which “Relative reactivity, OATA” value (OATA WT [3]) is on record?
A: The value was 27%.

Q: For `CC(=O)CO` [hydroxyacetone], which “Relative activity to acetophenone, OATA WT” value (OATA WT [1]) is on record?
A: Its value is 364%.

Q: Which “Relative activity to acetophenone, OATA WT” value (OATA WT [1]) does the source give for `COCC(C)=O` [methoxyacetone] here?
A: The value was 571%.

Q: With `CC(=O)C(=O)O` [pyruvate, pyruvic acid] as the compound, how does the “Relative activity, OATA WT” value (OATA WT [4]) read?
A: The value was 100%.

Q: For (Brucella anthropi ATCC 49188), which Km (CC(=O)C(=O)O) is on record?
A: The Km was 0.12, 2.1 mM.

Q: What about the kcat (CC(=O)C(=O)O) of the same compound?
A: Its kcat is 2600, 19000.

Q: What about the kcat/Km (CC(=O)C(=O)O) of the same compound?
A: Its kcat/Km is 22000, 9000.

Q: With (S)-sec-butylamine as the compound, how does the “Relative reactivity, OATA” value (OATA WT [3]) read?
A: The value was 29%.

Q: For cyclpropyl methyl ketone [Ketone 1o], which “Relative activity to acetophenone, OATA WT” value (OATA WT [1]) is on record?
A: The value was 17%.
